Source: ChEMBL document CHEMBL1133525, “A selenopyrylium photosensitizer for photodynamic therapy related in structure to the antitumor agent AA1 with potent in vivo activity and no long-term skin photosensitization” (J Med Chem, 2000)

experiment: Partition coefficient (logP); type: physicochemical; conditions: octanol/water

**Q.** For CN(C)c1ccc(-c2cc(-c3ccccc3)[s+]c(-c3ccc(N(C)C)cc3)c2)cc1, which logP is on record?
**A.** The logP was 2.5.

**Q.** With CN(C)c1ccc(-c2cc(-c3ccccc3)[se+]c(-c3ccc(N)cc3)c2)cc1 as the compound, how does the logP read?
**A.** Its logP is 0.8.

**Q.** Which logP does the source give for CN(C)c1ccc(-c2cc(-c3ccccc3)[te+]c(-c3ccc(N)cc3)c2)cc1 here?
**A.** Its logP is 0.5.

**Q.** For CN(C)c1ccc(-c2cc(-c3ccccc3)[s+]c(-c3ccc(N)cc3)c2)cc1, which logP is on record?
**A.** Its logP is 0.

**Q.** With CN(C)c1ccc(-c2cc(-c3ccccc3)[se+]c(-c3ccc(N(C)C)cc3)c2)cc1 as the compound, how does the logP read?
**A.** Its logP is 2.4.

**Q.** For CN(C)c1ccc(-c2cc(-c3ccccc3)[te+]c(-c3ccc(N(C)C)cc3)c2)cc1, which logP is on record?
**A.** The logP was 2.5.
